Reference: ChEMBL document CHEMBL1201862, “PubChem BioAssay data set” (2004)
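1) Cells in 96-well plates. 2) Compound, 48 h, 5 concentrations. 3) Linear interpolation between surrounding doses. 4) Unreached endpoint = highest concentration. GI50 marks 50% less growth.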 Calls of active or inactive are those of the source. Rule as the data show it: active = GI50 up to about 1.1 µM and inactive = higher.

Experiments:
Experiment in all cases: NCI-60 cell line screen, 48 h
[1] = test system: OVCAR-5
[2] = test system: SK-MEL-2
[3] = test system: A498
[4] = test system: SN12C
[5] = test system: HCC 2998
[6] = test system: A549
[7] = test system: SR
[8] = test system: EKVX
[9] = test system: SK-MEL-28
[10] = test system: COLO 205
[11] = test system: SF-268
[12] = test system: NCI-H23
[13] = test system: HOP-92
[14] = test system: RXF 393
[15] = test system: HCT-116
[16] = test system: SF-539
[17] = test system: OVCAR-3
[18] = test system: Hs-578T
[19] = test system: MCF7

| SMILES | GI50 [1] | GI50 [2] | GI50 [3] | GI50 [4] | GI50 [5] | GI50 [6] | GI50 [7] | GI50 [8] | GI50 [9] | GI50 [10] | GI50 [11] | GI50 [12] | GI50 [13] | GI50 [14] | GI50 [15] | GI50 [16] | GI50 [17] | GI50 [18] | GI50 [19] |
| --- | --- | --- | --- | --- | --- | --- | --- | --- | --- | --- | --- | --- | --- | --- | --- | --- | --- | --- | --- |
| O=C(CCc1cc(-c2ccco2)n(-c2ccc([N+](=O)[O-])cc2[N+](=O)[O-])n1)Nc1ccccc1 | > 100 µM (inactive) | > 100 µM (inactive) | > 100 µM (inactive) | > 100 µM (inactive) | > 100 µM (inactive) | > 100 µM (inactive) | > 100 µM (inactive) | > 100 µM (inactive) | > 100 µM (inactive) | > 100 µM (inactive) | > 100 µM (inactive) | > 100 µM (inactive) | > 100 µM (inactive) | > 100 µM (inactive) | > 100 µM (inactive) | > 100 µM (inactive) | – | – | – |
| O=C1/C(=C/c2ccc(Cl)cc2)CCC1CCN1CCOCC1 (configuration not stated) | > 100 µM (inactive) | > 100 µM (inactive) | 61.1 µM (inactive) | 72.1 µM (inactive) | 46.9 µM (inactive) | > 100 µM (inactive) | 26.1 µM (inactive) | > 100 µM (inactive) | > 100 µM (inactive) | – | 54.3 µM (inactive) | 86.1 µM (inactive) | 75.7 µM (inactive) | 47.9 µM (inactive) | 53 µM (inactive) | > 100 µM (inactive) | 59.3 µM (inactive) | – | – |
| O=C1OC(c2ccccc2)=N/C1=C/NC(Cc1c[nH]cn1)C(=O)O (configuration not stated) | > 100 µM (inactive) | > 100 µM (inactive) | > 100 µM (inactive) | > 100 µM (inactive) | > 100 µM (inactive) | > 100 µM (inactive) | > 100 µM (inactive) | > 100 µM (inactive) | > 100 µM (inactive) | > 100 µM (inactive) | > 100 µM (inactive) | > 100 µM (inactive) | > 100 µM (inactive) | > 100 µM (inactive) | > 100 µM (inactive) | > 100 µM (inactive) | > 100 µM (inactive) | – | – |
| Cc1cc(=O)cc2sc3c(C)cccc3nc1-2 | 49.9 µM (inactive) | 17.7 µM (inactive) | 23.3 µM (inactive) | 23.6 µM (inactive) | 51.4 µM (inactive) | 63.5 µM (inactive) | 22.9 µM (inactive) | – | 23.1 µM (inactive) | 18.4 µM (inactive) | 11.5 µM (inactive) | 37.2 µM (inactive) | 22.4 µM (inactive) | 35.4 µM (inactive) | 22.4 µM (inactive) | 31.1 µM (inactive) | 15.5 µM (inactive) | – | – |
| CC1=C(O)C(=O)C2C(=O)C1C(C)C2c1ccc(Cl)cc1 (configuration not stated) | > 100 µM (inactive) | > 100 µM (inactive) | > 100 µM (inactive) | – | > 100 µM (inactive) | > 100 µM (inactive) | > 100 µM (inactive) | > 100 µM (inactive) | > 100 µM (inactive) | > 100 µM (inactive) | > 100 µM (inactive) | > 100 µM (inactive) | > 100 µM (inactive) | > 100 µM (inactive) | – | > 100 µM (inactive) | > 100 µM (inactive) | – | – |
| COC12C=C(C)C(CC1)CC2C(=O)O (configuration not stated) | > 100 µM (inactive) | > 100 µM (inactive) | > 100 µM (inactive) | > 100 µM (inactive) | > 100 µM (inactive) | > 100 µM (inactive) | > 100 µM (inactive) | > 100 µM (inactive) | > 100 µM (inactive) | > 100 µM (inactive) | > 100 µM (inactive) | > 100 µM (inactive) | > 100 µM (inactive) | > 100 µM (inactive) | > 100 µM (inactive) | > 100 µM (inactive) | > 100 µM (inactive) | – | – |
| S=C1SCC2CCCN12 (configuration not stated) | > 100 µM (inactive) | > 100 µM (inactive) | > 100 µM (inactive) | > 100 µM (inactive) | > 100 µM (inactive) | > 100 µM (inactive) | > 100 µM (inactive) | – | – | > 100 µM (inactive) | > 100 µM (inactive) | – | > 100 µM (inactive) | > 100 µM (inactive) | > 100 µM (inactive) | > 100 µM (inactive) | – | – | – |
| CCN(CC)C(=O)N1CN(c2ccccc2)C2(CCN(CCCC3(c4ccc(F)cc4)OCCO3)CC2)C1=O | > 10 µM (inactive) | 14.8 µM (inactive) | – | 16.9 µM (inactive) | 14.5 µM (inactive) | 29.3 µM (inactive) | 11.6 µM (inactive) | 25.9 µM (inactive) | 13.8 µM (inactive) | 3.13 µM (inactive) | 20.6 µM (inactive) | 16.1 µM (inactive) | – | 14.7 µM (inactive) | 11.7 µM (inactive) | 16.6 µM (inactive) | 16.4 µM (inactive) | 16.3 µM (inactive) | 4.75 µM (inactive) |
| C=CCSc1ncnc2c1ncn2C1OC(CO)C(O)C1O (configuration not stated) | 60.5 µM (inactive) | 58.7 µM (inactive) | 58.2 µM (inactive) | 6.31 µM (inactive) | 24.3 µM (inactive) | > 100 µM (inactive) | > 100 µM (inactive) | > 100 µM (inactive) | > 100 µM (inactive) | 41.2 µM (inactive) | 34.7 µM (inactive) | 18.2 µM (inactive) | 9.2 µM (inactive) | – | 20.5 µM (inactive) | 37.5 µM (inactive) | 11.4 µM (inactive) | – | – |
| CC[C@@H](C)[C@@H]1NC(=O)C(C(C)=O)=C1O | 40.7 µM (inactive) | 15.3 µM (inactive) | 24.4 µM (inactive) | 25.1 µM (inactive) | 30.8 µM (inactive) | 26.4 µM (inactive) | 14.9 µM (inactive) | 27.7 µM (inactive) | 3.02 µM (inactive) | 17.9 µM (inactive) | 24.1 µM (inactive) | 20.1 µM (inactive) | 43.4 µM (inactive) | 26.7 µM (inactive) | 18.7 µM (inactive) | 23.1 µM (inactive) | 27.6 µM (inactive) | – | – |
| CCCSc1ccc2[nH]c(N3C(=O)/C(=C/c4ccco4)N=C3c3ccccc3)cc2c1 | > 50 µM (inactive) | 10.3 µM (inactive) | 15.4 µM (inactive) | 35 µM (inactive) | 18.3 µM (inactive) | 25.7 µM (inactive) | 7.26 µM (inactive) | 16.9 µM (inactive) | 33.7 µM (inactive) | 10.4 µM (inactive) | 33 µM (inactive) | 34.8 µM (inactive) | > 50 µM (inactive) | 22.9 µM (inactive) | 21.8 µM (inactive) | 9.42 µM (inactive) | 21.6 µM (inactive) | – | 15.8 µM (inactive) |
| C=C1C(=O)OC2C[C@H](C)C3CC(=O)C(C)=C3CC12 (some centres not stated) | 15.1 µM (inactive) | 14.2 µM (inactive) | 19.5 µM (inactive) | 12.1 µM (inactive) | 15.5 µM (inactive) | 24.5 µM (inactive) | 5.56 µM (inactive) | 16.3 µM (inactive) | 5.28 µM (inactive) | 10.4 µM (inactive) | 18.2 µM (inactive) | 13.6 µM (inactive) | 10.5 µM (inactive) | 13.2 µM (inactive) | 6.38 µM (inactive) | 17.2 µM (inactive) | 12.1 µM (inactive) | – | – |
| CCCCCC/C=C1\CCC(CN2CCOCC2)C1=O (configuration not stated) | 20.3 µM (inactive) | 18.7 µM (inactive) | 18 µM (inactive) | 17.2 µM (inactive) | 19.2 µM (inactive) | > 45.1 µM (inactive) | 4.31 µM (inactive) | 14.1 µM (inactive) | 16.9 µM (inactive) | 17.1 µM (inactive) | 19.6 µM (inactive) | 16.9 µM (inactive) | 16.3 µM (inactive) | – | 14.4 µM (inactive) | 16.9 µM (inactive) | 18.5 µM (inactive) | – | – |
| Cn1c(=O)cc2[nH]c3ccccc3n2c1=O | > 100 µM (inactive) | > 100 µM (inactive) | > 100 µM (inactive) | > 10 µM (inactive) | 72.8 µM (inactive) | > 100 µM (inactive) | > 100 µM (inactive) | > 100 µM (inactive) | > 100 µM (inactive) | 14.2 µM (inactive) | > 100 µM (inactive) | > 100 µM (inactive) | > 100 µM (inactive) | 28.8 µM (inactive) | > 10 µM (inactive) | 20.3 µM (inactive) | > 100 µM (inactive) | – | – |
| COc1cccc2c1C(=O)c1c(O)c3c(c(O)c1C2=O)C[C@@](O)(C(=O)CO)CC3OC1CC(NCCOCC(OC(C)=O)OC(C)=O)C(O)C(C)O1 (some centres not stated) | < 0.01 µM (active) | < 0.01 µM (active) | < 0.01 µM (active) | < 0.01 µM (active) | < 0.01 µM (active) | < 0.01 µM (active) | < 0.01 µM (active) | < 0.01 µM (active) | < 0.01 µM (active) | – | < 0.01 µM (active) | < 0.01 µM (active) | < 0.01 µM (active) | < 0.01 µM (active) | – | < 0.01 µM (active) | < 0.01 µM (active) | – | – |
| CC(C)(C)OC(=O)C#CC[C@H]1CCCC1/C=C/C(O)=C1/C(=O)NC(CCCNC(=O)OC(C)(C)C)C1=O (some centres not stated) | 88.5 µM (inactive) | 16.6 µM (inactive) | 45.2 µM (inactive) | 40.1 µM (inactive) | 42.9 µM (inactive) | > 100 µM (inactive) | 26.2 µM (inactive) | 16.3 µM (inactive) | 17.1 µM (inactive) | 17.8 µM (inactive) | 23.9 µM (inactive) | 24.9 µM (inactive) | 23.7 µM (inactive) | 14.7 µM (inactive) | 11.4 µM (inactive) | 26.4 µM (inactive) | 31.8 µM (inactive) | – | – |
| Cn1cnc([N+](=O)[O-])c1Sc1nc2ccccc2o1 | 14.2 µM (inactive) | 28.1 µM (inactive) | 19.3 µM (inactive) | 6.78 µM (inactive) | 11 µM (inactive) | 23.1 µM (inactive) | 2.49 µM (inactive) | 10.2 µM (inactive) | 5.78 µM (inactive) | 1.7 µM (inactive) | 8.32 µM (inactive) | 5.22 µM (inactive) | 4.24 µM (inactive) | 8.91 µM (inactive) | 3.58 µM (inactive) | 9.64 µM (inactive) | 5.81 µM (inactive) | – | – |
